These results are taken from patent US10183950B2, “Thienopyrimidine inhibitors of atypical protein kinase C” (Cancer Research Technology Limited, priority 2011, dated 2019).

A value given as a limit tells only on which side of the number the result lay.

This test has as its target T1, full-length human PKCι (Homo sapiens, UniProt P41743).
T1 construct: Recombinant, full-length human PKCι expressed in Sf21 insect cells is also commercially available; purchased; host or cells: Sf21 insect cells
T1 sequence (P41743 1-596): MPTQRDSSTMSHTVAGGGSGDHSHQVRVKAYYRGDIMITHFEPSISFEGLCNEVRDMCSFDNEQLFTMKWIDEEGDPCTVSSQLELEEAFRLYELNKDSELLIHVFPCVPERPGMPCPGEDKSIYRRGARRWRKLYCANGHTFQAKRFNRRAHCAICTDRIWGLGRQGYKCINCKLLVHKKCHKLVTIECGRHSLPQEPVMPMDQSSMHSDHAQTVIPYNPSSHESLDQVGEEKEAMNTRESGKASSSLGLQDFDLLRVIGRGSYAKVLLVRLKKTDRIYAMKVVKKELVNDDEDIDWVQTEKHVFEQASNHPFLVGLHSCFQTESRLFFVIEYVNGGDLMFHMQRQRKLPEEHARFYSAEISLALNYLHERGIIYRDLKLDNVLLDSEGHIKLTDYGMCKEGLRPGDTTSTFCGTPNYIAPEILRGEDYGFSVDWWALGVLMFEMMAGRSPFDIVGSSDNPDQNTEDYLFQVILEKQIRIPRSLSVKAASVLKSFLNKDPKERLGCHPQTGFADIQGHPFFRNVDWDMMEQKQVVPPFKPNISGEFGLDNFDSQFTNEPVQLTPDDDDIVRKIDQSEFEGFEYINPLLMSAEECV
Briefly: PKCι IC50 IMAP fluorescence polarisation assay, full-length enzyme. It counts as biochemical. The conditions noted are these: full length PKCi at 15 μM ATP; read-out: IC50 in IMAP assay against full length PKCi. In general terms: Fluorescence polarisation rises when a labelled molecule tumbles more slowly, as on binding a larger partner.

Turning to `Brc1csc2c(N[C@@H]3CCNC3)nc(-c3ccncc3)nc12` [compound 351, (7-Bromo-2-pyridin-4-yl-thieno[3,2-d]pyrimidin-4-yl)-(R)-pyrrolidin-3-yl-amine], the IC50 (in general, the concentration needed to halve the response being measured) was less than 0.1 µM. On to `Fc1cnccc1-c1nc(N[C@@H]2CCNC2)c2scc(Br)c2n1` [compound 352, [7-Bromo-2-(3-fluoro-pyridin-4-yl)-thieno[3,2-d]pyrimidin-4-yl]-(R)-pyrrolidin-3-yl-amine], for which the IC50 fell in the range of 1 to 10 µM. With `C[C@H](N)CNc1nc(-c2ccncc2F)nc2ccsc12` [compound 353, (S)-N*1*-[2-(3-Fluoro-pyridin-4-yl)-thieno[3,2-d]pyrimidin-4-yl]-propane-1,2-diamine] the figure was 10 to 40 µM. Take `Fc1cnccc1-c1nc(N[C@@H]2CCNC2)c2sccc2n1` [compound 354, [2-(3-Fluoro-pyridin-4-yl)-thieno[3,2-d]pyrimidin-4-yl]-(R)-pyrrolidin-3-yl-amine]: the IC50 fell in the range of 10 to 40 µM.

As for `N[C@H](CNc1nc(-c2ccncc2F)nc2ccsc12)Cc1ccccc1` [compound 355, (S)-N*1*-[2-(3-Fluoro-pyridin-4-yl)-thieno[3,2-d]pyrimidin-4-yl]-3-phenyl-propane-1,2-diamine], the IC50 lay in the range of 1 to 10 µM. Consider `CC(C)(C)c1ccc(-c2cc3nc(-c4ccncc4)nc(N4CCNCC4)c3s2)cc1` [compound 357, 6-(4-tert-Butyl-phenyl)-4-piperazin-1-yl-2-pyridin-4-yl-thieno[3,2-d]pyrimidine], for which the IC50 lay within 10 to 40 µM. Turning to `Cc1sc2c(NC[C@@H](N)Cc3ccccc3)nc(-c3ccncc3)nc2c1-c1ccn[nH]1` [compound 388, (S)—N*1*-[6-methyl-7-(2H-pyrazol-3-yl)-2-pyridin-4-yl-thieno[3,2-d]pyrimidin-4-yl]-3-phenyl-propane-1,2-diamine], the IC50 was less than 0.1 µM. For `Cc1c(-c2ccn[nH]2)sc2c(N[C@@H]3CCNC3)nc(-c3ccncc3)nc12` [compound 389, [7-Methyl-6-(2H-pyrazol-3-yl)-2-pyridin-4-yl-thieno[3,2-d]pyrimidin-4-yl]-(R)-pyrrolidin-3-yl-amine], the 50% inhibitory concentration (IC50) was 1 to 10 µM. With `N[C@H](CNc1nc(-c2ccncc2)nc2c(-c3ccn[nH]3)csc12)Cc1ccccc1` [compound 390, (S)-3-Phenyl-N*1*-[7-(2H-pyrazol-3-yl)-2-pyridin-4-yl-thieno[3,2-d]pyrimidin-4-yl]-propane-1,2-diamine], the IC50 is less than 0.1 µM. Next, `Cn1nccc1-c1csc2c(NC[C@@H](N)Cc3ccccc3)nc(-c3ccncc3)nc12` [compound 391, (S)-N*1*-[7-(2-Methyl-2H-pyrazol-3-yl)-2-pyridin-4-yl-thieno[3,2-d]pyrimidin-4-yl]-3-phenyl-propane-1,2-diamine]: 1 to 10 µM; `Cc1noc(C)c1-c1csc2c(NC[C@@H](N)Cc3ccccc3)nc(-c3ccncc3)nc12` [compound 392, N*1*-[7-(3,5-Dimethyl-isoxazol-4-yl)-2-pyridin-4-yl-thieno[3,2-d]pyrimidin-4-yl]-3-phenyl-propane-1,2-diamine]: 1 to 10 µM; `N[C@H](CNc1nc(-c2ccncc2)nc2c(-c3cn[nH]c3)csc12)Cc1ccccc1` [compound 393, (S)-3-Phenyl-N*1*-[7-(1H-pyrazol-4-yl)-2-pyridin-4-yl-thieno[3,2-d]pyrimidin-4-yl]-propane-1,2-diamine]: 0.1 to 1 µM.

As to `CC(C)Cn1cc(-c2csc3c(NC[C@@H](N)Cc4ccccc4)nc(-c4ccncc4)nc23)cn1` [compound 394, (S)-N*1*-[7-(1-Isobutyl-1H-pyrazol-4-yl)-2-pyridin-4-yl-thieno[3,2-d]pyrimidin-4-yl]-3-phenyl-propane-1,2-diamine], the IC50 lay within 1 to 10 µM. Next, `Cc1csc(-c2csc3c(NC[C@@H](N)Cc4ccccc4)nc(-c4ccncc4)nc23)c1` [compound 395, (S)-N*1*-[7-(4-Methyl-thiophen-2-yl)-2-pyridin-4-yl-thieno[3,2-d]pyrimidin-4-yl]-3-phenyl-propane-1,2-diamine]: 1 to 10 µM. Regarding `Cc1ccsc1-c1csc2c(NC[C@@H](N)Cc3ccccc3)nc(-c3ccncc3)nc12` [compound 396, (S)-N*1*-[7-(3-Methyl-thiophen-2-yl)-2-pyridin-4-yl-thieno[3,2-d]pyrimidin-4-yl]-3-phenyl-propane-1,2-diamine], the 50% inhibitory concentration (IC50) was 0.1 to 1 µM. With `N[C@H](CNc1nc(-c2ccncc2)nc2c(-c3ccc[nH]3)csc12)Cc1ccccc1` [compound 397, (S)-3-Phenyl-N*1*-[2-pyridin-4-yl-7-(1H-pyrrol-2-yl)-thieno[3,2-d]pyrimidin-4-yl]-propane-1,2-diamine] the figure was 0.1 to 1 µM; with `N[C@H](CNc1nc(-c2ccncc2)nc2c(-c3cc[nH]c3)csc12)Cc1ccccc1` [compound 398, (S)-3-Phenyl-N*1*-[2-pyridin-4-yl-7-(1H-pyrrol-3-yl)-thieno[3,2-d]pyrimidin-4-yl]-propane-1,2-diamine], 0.1 to 1 µM; with `CC(C)(C)[Si](C)(C)C#Cc1csc2c(NC[C@@H](N)Cc3ccccc3)nc(-c3ccncc3)nc12` [compound 399, (S)-N*1*-{7-[(tert-Butyl-dimethyl-silanyl)-ethynyl]-2-pyridin-4-yl-thieno[3,2-d]pyrimidin-4-yl}-3-phenyl-propane-1,2-diamine], 1 to 10 µM.

As to `COCC#Cc1csc2c(NC[C@@H](N)Cc3ccccc3)nc(-c3ccncc3)nc12` [compound 400, (S)-N*1*-[7-(3-Methoxy-prop-1-ynyl)-2-pyridin-4-yl-thieno[3,2-d]pyrimidin-4-yl]-3-phenyl-propane-1,2-diamine], the IC50 is less than 0.1 µM. With `CCCC#Cc1csc2c(NC[C@@H](N)Cc3ccccc3)nc(-c3ccncc3)nc12` [compound 401, (S)-N*1*-(7-Pent-1-ynyl-2-pyridin-4-yl-thieno[3,2-d]pyrimidin-4-yl)-3-phenyl-propane-1,2-diamine] the figure was 0.1 to 1 µM; with `N[C@H](CNc1nc(-c2ccncc2)nc2c(C#Cc3ccccc3)csc12)Cc1ccccc1` [compound 402, (S)-3-Phenyl-N*1*-(7-phenylethynyl-2-pyridin-4-yl-thieno[3,2-d]pyrimidin-4-yl)-propane-1,2-diamine], 0.1 to 1 µM; with `c1cc(-c2nc(N[C@@H]3CCNC3)c3scc(-c4ccn[nH]4)c3n2)ccn1` [compound 403, [7-(2H-Pyrazol-3-yl)-2-pyridin-4-yl-thieno[3,2-d]pyrimidin-4-yl]-(R)-pyrrolidin-3-yl-amine], less than 0.1 µM.

Consider `COC/C=C/c1csc2c(NC[C@@H](N)Cc3ccccc3)nc(-c3ccncc3)nc12` [compound 404, (S)-N*1*-[7-((E)-3-Methoxy-propenyl)-2-pyridin-4-yl-thieno[3,2-d]pyrimidin-4-yl]-3-phenyl-propane-1,2-diamine], for which the IC50 lay within 0.1 to 1 µM.

Consider `N[C@H](CNc1nc(-c2ccncc2)nc2c(/C=C/C3CC3)csc12)Cc1ccccc1` [compound 405, (S)-N*1*-[7-((E)-2-Cyclopropyl-vinyl)-2-pyridin-4-yl-thieno[3,2-d]pyrimidin-4-yl]-3-phenyl-propane-1,2-diamine], for which the IC50 is less than 0.1 µM.

As for `CC(C)(C)/C=C/c1csc2c(NC[C@@H](N)Cc3ccccc3)nc(-c3ccncc3)nc12` [compound 406, (S)-N*1*-[7-((E)-3,3-Dimethyl-but-1-enyl)-2-pyridin-4-yl-thieno[3,2-d]pyrimidin-4-yl]-3-phenyl-propane-1,2-diamine], the IC50 lay in the range of 1 to 10 µM. With `C/C=C\c1csc2c(NC[C@@H](N)Cc3ccccc3)nc(-c3ccncc3)nc12` [compound 407, (S)-3-Phenyl-N*1*-[7-((Z)-propenyl)-2-pyridin-4-yl-thieno[3,2-d]pyrimidin-4-yl]-propane-1,2-diamine] the figure was less than 0.1 µM; with `C=Cc1csc2c(NC[C@@H](N)Cc3ccccc3)nc(-c3ccncc3)nc12` [compound 408, (S)-3-Phenyl-N*1*-(2-pyridin-4-yl-7-vinyl-thieno[3,2-d]pyrimidin-4-yl)-propane-1,2-diamine], less than 0.1 µM; with `N[C@H](CNc1nc(-c2ccncc2)nc2c(-c3ccc(F)cc3)csc12)Cc1ccccc1` [compound 409, (S)-N*1*-[7-(4-Fluoro-phenyl)-2-pyridin-4-yl-thieno[3,2-d]pyrimidin-4-yl]-3-phenyl-propane-1,2-diamine], 0.1 to 1 µM. With `N[C@H](CNc1nc(-c2ccncc2)nc2c(-c3cccnc3)csc12)Cc1ccccc1` [compound 410, (S)-3-Phenyl-N*1*-(2-pyridin-4-yl-7-pyridin-3-yl-thieno[3,2-d]pyrimidin-4-yl)-propane-1,2-diamine] the figure was 1 to 10 µM; with `Cn1cc(-c2csc3c(NC[C@@H](N)Cc4ccccc4)nc(-c4ccncc4)nc23)cn1` [compound 411, (S)-N*1*-[7-(1-Methyl-1H-pyrazol-4-yl)-2-pyridin-4-yl-thieno[3,2-d]pyrimidin-4-yl]-3-phenyl-propane-1,2-diamine], 1 to 10 µM; with `Cc1ccc(-c2csc3c(NC[C@@H](N)Cc4ccccc4)nc(-c4ccncc4)nc23)o1` [compound 412, (S)-N*1*-[7-(5-Methyl-furan-2-yl)-2-pyridin-4-yl-thieno[3,2-d]pyrimidin-4-yl]-3-phenyl-propane-1,2-diamine], 1 to 10 µM.
